The record followed here is patent publication US20230398130A1, “METHODS AND COMPOSITIONS FOR DIFFERENTIATING STEM CELLS” (Massachusetts Institute of Technology, priority 2020, published 2023).

The subject of experiment [1] is ISC-enriched organoids. As to the kind of experiment: Primary screen, 384-well 2.5-D organoid differentiation (ENR+CD, 6 days): basal lysozyme secretion (LYZ.NS). Particulars: for Dose.FC.LYZ.NS: ENR+CD, 6 days, FC vs plate median; for Z.LYZ.NS: standard z score of FC. Type of experiment: cell-based, murine. The source says:
(§1) High-throughput screening.

For experiment [2], the system named is ISC-enriched organoids. Description: Primary screen, 384-well 2.5-D organoid differentiation (ENR+CD, 6 days): carbachol-induced lysozyme secretion (LYZ.S). Type of experiment: cell-based, murine. The settings on record: ENR+CD, 6 days, FC vs plate median.
Description: as §1

Experiment [3] deals with ISC-enriched organoids. As to the kind of experiment: Primary screen, 384-well 2.5-D organoid differentiation (ENR+CD, 6 days, Target Selective Inhibitor Library, vs whole-plate median): ATP (CellTiter-Glo 3D, CTG). Particulars: for Dose.FC.CTG: ENR+CD, 6 days, FC vs plate median; for Z.CTG: standard z score of FC. (In general: Cellular ATP, detected with luciferase, serves as a proxy for viable cell number.)

As for `CC(C)c1cc(-c2n[nH]c(=O)n2-c2ccc3c(ccn3C)c2)c(O)cc1O` [Ganetespib (STA-9090)], the Dose.FC.LYZ.NS was −0.141 log 2 fold change with ISC-enriched organoids [1] (Dose 0.08 uM), −0.155 log 2 fold change in the experiment with ISC-enriched organoids [1] (Dose 0.40 uM), −0.150 log 2 fold change with ISC-enriched organoids [1] (Dose 2.00 uM) and −0.136 log 2 fold change with ISC-enriched organoids [1] (Dose 10.00 uM). For the same compound, the Z.LYZ.NS in the experiment with ISC-enriched organoids [1] (Dose 0.08 uM) is recorded as −1.226; with ISC-enriched organoids [1] (Dose 0.40 uM), −1.345; in the experiment on ISC-enriched organoids [1] (Dose 2.00 uM) it was −1.309; in the experiment with ISC-enriched organoids [1] (Dose 10.00 uM) it was −1.181. Moreover, the Dose.FC.LYZ.S was −0.260 log 2 fold change in the experiment with ISC-enriched organoids [2] (Dose 0.08 uM), −0.250 log 2 fold change in the experiment with ISC-enriched organoids [2] (Dose 0.40 uM), −0.260 log 2 fold change in the experiment on ISC-enriched organoids [2] (Dose 2.00 uM) and −0.267 log 2 fold change in the experiment with ISC-enriched organoids [2] (Dose 10.00 uM). For the same compound, the Dose.FC.CTG in the experiment on ISC-enriched organoids [3] (Dose 0.08 uM) was −1.450 log 2 fold change; in the experiment with ISC-enriched organoids [3] (Dose 0.40 uM) it was −2.105 log 2 fold change; with ISC-enriched organoids [3] (Dose 2.00 uM), −1.721 log 2 fold change; in the experiment on ISC-enriched organoids [3] (Dose 10.00 uM) it was −1.620 log 2 fold change. Moreover, the Z.CTG is given as −3.465 with ISC-enriched organoids [3] (Dose 0.08 uM), −5.027 with ISC-enriched organoids [3] (Dose 0.40 uM), −4.110 with ISC-enriched organoids [3] (Dose 2.00 uM) and −3.871 in the experiment on ISC-enriched organoids [3] (Dose 10.00 uM).

For the compound `C[C@@H]1C(=O)O[C@H]2C[C@@]34[C@H]5C[C@@H](C(C)(C)C)[C@]36[C@@H](OC(=O)[C@@H]6O)O[C@@]4(C(=O)O5)[C@]21O` [Ginkgolide A], the Dose.FC.LYZ.NS with ISC-enriched organoids [1] (Dose 0.08 uM) was 0.045 log 2 fold change; in the experiment with ISC-enriched organoids [1] (Dose 0.40 uM) it was 0.025 log 2 fold change; in the experiment on ISC-enriched organoids [1] (Dose 2.00 uM) it was 0.030 log 2 fold change; in the experiment with ISC-enriched organoids [1] (Dose 10.00 uM) it was 0.052 log 2 fold change. The Z.LYZ.NS worked out at 0.395 in the experiment with ISC-enriched organoids [1] (Dose 0.08 uM), 0.222 with ISC-enriched organoids [1] (Dose 0.40 uM), 0.258 in the experiment on ISC-enriched organoids [1] (Dose 2.00 uM) and 0.450 in the experiment on ISC-enriched organoids [1] (Dose 10.00 uM). For the same compound, the Dose.FC.LYZ.S with ISC-enriched organoids [2] (Dose 0.08 uM) was 0.124 log 2 fold change; with ISC-enriched organoids [2] (Dose 0.40 uM), 0.161 log 2 fold change; with ISC-enriched organoids [2] (Dose 2.00 uM), 0.002 log 2 fold change; in the experiment with ISC-enriched organoids [2] (Dose 10.00 uM), −0.028 log 2 fold change. The Dose.FC.CTG in the experiment on ISC-enriched organoids [3] (Dose 0.08 uM) is 0.005 log 2 fold change; with ISC-enriched organoids [3] (Dose 0.40 uM), −0.017 log 2 fold change; with ISC-enriched organoids [3] (Dose 2.00 uM), 0.040 log 2 fold change; with ISC-enriched organoids [3] (Dose 10.00 uM) it was −0.012 log 2 fold change. In addition, the Z.CTG in the experiment with ISC-enriched organoids [3] (Dose 0.08 uM) is 0.011; in the experiment on ISC-enriched organoids [3] (Dose 0.40 uM), −0.040; with ISC-enriched organoids [3] (Dose 2.00 uM) it was 0.095; with ISC-enriched organoids [3] (Dose 10.00 uM), −0.028.

For the compound `CC1C(=O)OC2C(O)C34C5CC(C(C)(C)C)C36C(OC(=O)C6O)OC4(C(=O)O5)C12O` (stereo not drawn) [Ginkgolide B], the Dose.FC.LYZ.NS with ISC-enriched organoids [1] (Dose 0.08 uM) is on record as 0.041 log 2 fold change; in the experiment with ISC-enriched organoids [1] (Dose 0.40 uM) it was 0.109 log 2 fold change; in the experiment on ISC-enriched organoids [1] (Dose 2.00 uM), 0.061 log 2 fold change; in the experiment on ISC-enriched organoids [1] (Dose 10.00 uM), −0.037 log 2 fold change. Besides, the Z.LYZ.NS with ISC-enriched organoids [1] (Dose 0.08 uM) was 0.353; in the experiment with ISC-enriched organoids [1] (Dose 0.40 uM), 0.950; with ISC-enriched organoids [1] (Dose 2.00 uM), 0.528; in the experiment with ISC-enriched organoids [1] (Dose 10.00 uM), −0.326. In addition, the Dose.FC.LYZ.S with ISC-enriched organoids [2] (Dose 0.08 uM) is 0.034 log 2 fold change; in the experiment with ISC-enriched organoids [2] (Dose 0.40 uM), 0.047 log 2 fold change; in the experiment with ISC-enriched organoids [2] (Dose 2.00 uM), 0.033 log 2 fold change; with ISC-enriched organoids [2] (Dose 10.00 uM), −0.035 log 2 fold change. Further, the Dose.FC.CTG with ISC-enriched organoids [3] (Dose 0.08 uM) is listed as −0.076 log 2 fold change; in the experiment on ISC-enriched organoids [3] (Dose 0.40 uM), 0.034 log 2 fold change; in the experiment with ISC-enriched organoids [3] (Dose 2.00 uM), −0.154 log 2 fold change; with ISC-enriched organoids [3] (Dose 10.00 uM), 0.177 log 2 fold change. Besides, the Z.CTG is −0.182 in the experiment on ISC-enriched organoids [3] (Dose 0.08 uM), 0.081 with ISC-enriched organoids [3] (Dose 0.40 uM), −0.369 with ISC-enriched organoids [3] (Dose 2.00 uM) and 0.422 in the experiment with ISC-enriched organoids [3] (Dose 10.00 uM).
